Entries after “also recorded” stand apart in the source; their conditions may differ.
How the values were obtained:
[1] = Metabolic stability in human intestinal homogenate; type: in vitro ADME; conditions: for % Remaining / Aa/Ai Mean (n = 2) / CLint(HIH) / T1/2: 1 μM; for CLint(HIH) / T1/2: 0.5 mg/mL homogenate, 1 mM NADPH
Method: The intestinal homogenate mixture solution was added to 96-well plates ([…]) in duplicate. […] Reaction was initiated by adding cofactor solution at 10 μL/well.
The intrinsic clearances were calculated using the following equations: […]

in vitro = conditions: for % Remaining / Aa/Ai Mean (N = 2) / T1/2: 2.0 μM; for T1/2: 60 min incubation
MDR1 = MDR1 (Homo sapiens, UniProt P08183); assay: Vesicular transport inhibition assay, MDR1 (N-methyl quinidine); conditions: for Maximum % inhibition: MDR1, inside-out membrane vesicles, NMQ (1 μM), NIO: No inhibition observed
MDR1, sequence (P08183 whole entry): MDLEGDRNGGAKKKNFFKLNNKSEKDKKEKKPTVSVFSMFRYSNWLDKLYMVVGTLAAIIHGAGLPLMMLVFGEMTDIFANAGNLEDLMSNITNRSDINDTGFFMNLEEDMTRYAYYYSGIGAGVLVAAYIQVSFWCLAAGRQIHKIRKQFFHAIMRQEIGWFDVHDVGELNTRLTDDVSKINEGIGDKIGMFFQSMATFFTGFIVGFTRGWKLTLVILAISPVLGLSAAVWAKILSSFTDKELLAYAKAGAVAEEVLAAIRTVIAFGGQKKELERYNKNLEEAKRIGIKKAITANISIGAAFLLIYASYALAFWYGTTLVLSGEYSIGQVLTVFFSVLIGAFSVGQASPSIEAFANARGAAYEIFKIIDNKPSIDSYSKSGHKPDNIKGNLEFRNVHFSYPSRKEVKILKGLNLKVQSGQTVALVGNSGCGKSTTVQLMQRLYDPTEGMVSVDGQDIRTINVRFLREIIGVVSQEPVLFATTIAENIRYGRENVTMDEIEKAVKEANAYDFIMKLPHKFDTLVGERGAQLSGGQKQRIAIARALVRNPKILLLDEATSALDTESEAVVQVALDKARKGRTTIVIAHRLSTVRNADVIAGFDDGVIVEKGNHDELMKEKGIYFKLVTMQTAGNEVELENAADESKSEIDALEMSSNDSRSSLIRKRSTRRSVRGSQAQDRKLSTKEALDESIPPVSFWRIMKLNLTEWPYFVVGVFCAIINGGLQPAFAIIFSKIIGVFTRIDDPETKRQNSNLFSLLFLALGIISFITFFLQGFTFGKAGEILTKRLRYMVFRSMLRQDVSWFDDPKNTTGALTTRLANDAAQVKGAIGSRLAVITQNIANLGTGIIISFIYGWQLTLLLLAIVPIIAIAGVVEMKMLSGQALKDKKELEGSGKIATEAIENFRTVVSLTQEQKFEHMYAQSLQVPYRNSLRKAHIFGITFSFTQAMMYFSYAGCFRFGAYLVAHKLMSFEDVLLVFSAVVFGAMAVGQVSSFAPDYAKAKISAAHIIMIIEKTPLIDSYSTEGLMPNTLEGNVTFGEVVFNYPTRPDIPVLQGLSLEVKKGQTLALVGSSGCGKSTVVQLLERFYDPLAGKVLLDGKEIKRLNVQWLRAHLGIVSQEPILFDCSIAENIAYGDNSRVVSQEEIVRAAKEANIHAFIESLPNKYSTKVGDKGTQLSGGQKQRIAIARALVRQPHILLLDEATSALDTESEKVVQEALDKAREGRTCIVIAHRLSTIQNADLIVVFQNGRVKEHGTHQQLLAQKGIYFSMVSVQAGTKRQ
Method: Vesicular transport assays were performed with inside-out membrane vesicles prepared from cells overexpressing human ABC (efflux) transporters. The transporters were expressed by SOLVO Biotechnology in mammalian (HEK293) cells. The mammalian cells were stably transfected with the ABC transporter of interest. The assays were conducted according to the actual SOLVO VT assay protocols (PR-ASY-VT-General Protocol for Vesicular Transport Inhibition Assays).
The membrane vesicle suspension was mixed with the ice-cold transport buffer, then the probe substrate solution was added. […] (for BCRP and MDR1). […] Reactions were quenched by the addition of 200 μL of ice-cold washing buffer and immediate filtration via glass fiber filters mounted to a 96-well plate (filter plate). The filters were washed (5×200 μL of ice-cold washing buffer), dried and the amount of substrate inside the filtered vesicles was determined by liquid scintillation counting.
Incubation with AMP provided background activity values for all data points.

OATP1B1 = target: T1, OATP1B1 (Homo sapiens, UniProt Q9Y6L6); assay: Uptake transporter inhibition assay, OATP1B1 (estradiol-17-β-glucuronide); conditions: for Maximum % inhibition: OATP1B1, HEK293 cells, E217βG (1 μM), NIO: no inhibition observed
T1 sequence (Q9Y6L6 1-691): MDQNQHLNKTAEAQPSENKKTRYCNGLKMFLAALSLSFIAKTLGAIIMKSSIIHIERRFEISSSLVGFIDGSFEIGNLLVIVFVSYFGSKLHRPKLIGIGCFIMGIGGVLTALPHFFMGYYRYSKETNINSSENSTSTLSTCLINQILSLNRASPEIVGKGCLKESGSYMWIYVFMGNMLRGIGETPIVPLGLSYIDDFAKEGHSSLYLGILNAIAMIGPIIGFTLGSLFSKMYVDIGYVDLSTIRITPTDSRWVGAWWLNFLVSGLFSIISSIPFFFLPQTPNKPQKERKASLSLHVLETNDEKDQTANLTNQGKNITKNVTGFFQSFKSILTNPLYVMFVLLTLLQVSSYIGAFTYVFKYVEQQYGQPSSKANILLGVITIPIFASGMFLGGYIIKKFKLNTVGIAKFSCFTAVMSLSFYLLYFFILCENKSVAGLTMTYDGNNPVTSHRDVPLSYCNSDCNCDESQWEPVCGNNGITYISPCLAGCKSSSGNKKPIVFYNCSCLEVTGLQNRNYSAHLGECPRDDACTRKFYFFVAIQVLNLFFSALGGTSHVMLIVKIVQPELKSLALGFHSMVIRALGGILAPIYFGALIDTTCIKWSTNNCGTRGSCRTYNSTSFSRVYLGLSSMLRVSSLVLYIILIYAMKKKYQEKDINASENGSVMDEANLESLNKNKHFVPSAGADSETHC
Method: Uptake experiments were performed using HEK293 cells stably expressing the respective uptake transporters. The assays were conducted according to the actual SOLVO uptake transporter assay protocols (PR-ASY-UPT-General Protocol for Uptake Transporter Inhibition Assays).
Cells were cultured at 37° C. in a humidified atmosphere containing 5% CO2 and were plated onto standard 96-well tissue culture plates.
Before the experiment, the medium was removed, and the cells were washed twice with 100 μL of pre-warmed (37° C.) assay buffer listed in Table 15. The cells were pre-incubated at 37° C. for 30 minutes in assay buffer containing the test article at appropriate concentrations (Table 16), appropriate solvents for solvent controls and the reference inhibitor for reference inhibitor wells. After the pre-incubation step solutions were removed. Uptake experiments were performed at 37° C. in 50 μL of assay buffer containing the probe substrate and the test article or solvent and controls.
After the experiment, cells were washed twice with 100 μL of appropriate cold buffer and lysed with 150 μL scintillation cocktail. Radiolabeled probe substrate transport was determined by liquid scintillation counting.
Uptake of the probe substrate in control cells provided background activity values for all data points.

[2] = 2-concentration assay, up to 100 μM (Compound A up to 50 μM)
[3] = 2-concentration assay, up to 100 μM (Compound A up to 30 μM)
[4] = 0.14 μM nominal, follow-up assay
[5] = 1.24 μM nominal, follow-up assay
[6] = 11.11 μM nominal, follow-up assay
[7] = 33.33 μM nominal, follow-up assay
[8] = 100.00 μM nominal, follow-up assay
[9] = 0.14 μM nominal, 0.09 μM NSB corrected, follow-up assay
[10] = 1.24 μM nominal, 0.86 μM NSB corrected, follow-up assay
[11] = 10.00 μM nominal, 6.60 μM NSB corrected
[12] = 11.11 μM nominal, 7.89 μM NSB corrected, follow-up assay
[13] = 33.33 μM nominal, 24.33 μM NSB corrected, follow-up assay
[14] = 100.00 μM nominal, 77.00 μM NSB corrected
[15] = 100.00 μM nominal, 100.00 μM NSB corrected, follow-up assay
[16] = […] nominal, 1.89 μM NSB corrected, follow-up assay

## COCCOC1(c2ccc(Cl)cc2)c2ccccc2C2=NCCN21 (stereo not shown) [Compound I-4]
[1]; 0 min
  Compound A formed (Aa/Ai): 0.46
  % Remaining: 100%
  Aa/Ai Mean (n = 2): 1.34
[1]
  CLint(HIH): 8.40 µL/min/mg
  T1/2: 2.75 h
[1]; 5 min
  % Remaining: 97.6%
  Aa/Ai Mean (n = 2): 1.31
  Compound A formed (Aa/Ai): 0.54
[1]; 10 min
  % Remaining: 87.3%
  Aa/Ai Mean (n = 2): 1.17
  Compound A formed (Aa/Ai): 0.50
[1]; 20 min
  % Remaining: 88.0%
  Aa/Ai Mean (n = 2): 1.18
  Compound A formed (Aa/Ai): 0.51
[1]; 30 min
  % Remaining: 87.4%
  Aa/Ai Mean (n = 2): 1.17
  Compound A formed (Aa/Ai): 0.58
[1]; 60 min
  % Remaining: 75.8%
  Aa/Ai Mean (n = 2): 1.01
  Compound A formed (Aa/Ai): 0.50
[1]; NCF60 (60 min, no cofactors)
  % Remaining: 80.4%
  Aa/Ai Mean (n = 2): 1.08
  Compound A formed (Aa/Ai): 0.69
In vitro; 0 min
  Compound A formed (Aa/Ai): 0.55
  % Remaining: 100%
  Aa/Ai Mean (N = 2): 3.23
In vitro; 5 min
  % Remaining: 105%
  Aa/Ai Mean (N = 2): 3.39
  Compound A formed (Aa/Ai): 0.61
In vitro; 15 min
  % Remaining: 107%
  Aa/Ai Mean (N = 2): 3.46
  Compound A formed (Aa/Ai): 0.60
In vitro; 30 min
  % Remaining: 101%
  Aa/Ai Mean (N = 2): 3.27
  Compound A formed (Aa/Ai): 0.53
In vitro; 60 min
  % Remaining: 92.6%
  Aa/Ai Mean (N = 2): 2.99
  Compound A formed (Aa/Ai): 0.42
In vitro
  T1/2: >3.12 h

## OC1(c2ccc(Cl)cc2)c2ccccc2C2=NCCN21 (stereo not shown) [Compound A, 5-(4-chlorophenyl)-2,3-dihydroimidazo[1,2-b]isoindol-5-ol, reference compound]
MDR1; 5.00 μM nominal
  Relative ATP-dependent transport: 99.11 ± 9.38 % of control
MDR1; 50.00 μM nominal
  Relative ATP-dependent transport: 97.83 ± 5.19 % of control
MDR1; [2]
  maximum inhibition of MDR1-mediated NMQ accumulation: did not inhibit; also recorded: not an in vitro inhibitor
MDR1
  Maximum % inhibition: NIO
MDR1; human, Relative inhibition, 5.00 μM nominal
  inhibition at 5 μM: 1%
MDR1; human, Relative inhibition, 50.00 μM nominal
  inhibition at 50 μM: 2%
OATP1B1; 3.00 μM nominal, E217βG, Table 119
  Relative transporter specific accumulation: 96.77 ± 2.48 % of control
OATP1B1; 30.00 μM nominal, E217βG, Table 119
  Relative transporter specific accumulation: 94.38 ± 2.14 % of control
OATP1B1; [3]
  maximum inhibition of OATP1B1-mediated E217βG accumulation: did not inhibit; also recorded: not an in vitro inhibitor
OATP1B1
  Maximum % inhibition: NIO
OATP1B1; human
  inhibition at 3 μM: 3%
  inhibition at 30 μM: 6%

## Clc1ccc(C2(OCC3OCCO3)c3ccccc3C3=NCCN32)cc1 (stereo not shown) [Compound I-19]
[1]; 0 min
  Compound A formed (Aa/Ai): 0.76
  % Remaining: 100%
  Aa/Ai Mean (n = 2): 0.90
[1]
  CLint(HIH): 20.0 µL/min/mg
  T1/2: 1.16 h
[1]; 5 min
  % Remaining: 85.6%
  Aa/Ai Mean (n = 2): 0.77
  Compound A formed (Aa/Ai): 0.67
[1]; 10 min
  % Remaining: 82.8%
  Aa/Ai Mean (n = 2): 0.75
  Compound A formed (Aa/Ai): 0.67
[1]; 20 min
  % Remaining: 68.4%
  Aa/Ai Mean (n = 2): 0.62
  Compound A formed (Aa/Ai): 0.65
[1]; 30 min
  % Remaining: 65.2%
  Aa/Ai Mean (n = 2): 0.59
  Compound A formed (Aa/Ai): 0.61
[1]; 60 min
  % Remaining: 52.6%
  Aa/Ai Mean (n = 2): 0.47
  Compound A formed (Aa/Ai): 0.53
[1]; NCF60 (60 min, no cofactors)
  % Remaining: 55.5%
  Aa/Ai Mean (n = 2): 0.50
  Compound A formed (Aa/Ai): 0.58
In vitro; 0 min
  Compound A formed (Aa/Ai): 0.63
  % Remaining: 100%
  Aa/Ai Mean (N = 2): 1.80
In vitro; 5 min
  % Remaining: 97.6%
  Aa/Ai Mean (N = 2): 1.76
  Compound A formed (Aa/Ai): 0.65
In vitro; 15 min
  % Remaining: 97.2%
  Aa/Ai Mean (N = 2): 1.75
  Compound A formed (Aa/Ai): 0.63
In vitro; 30 min
  % Remaining: 93.9%
  Aa/Ai Mean (N = 2): 1.69
  Compound A formed (Aa/Ai): 0.53
In vitro; 60 min
  Aa/Ai Mean (N = 2): 1.25
  Compound A formed (Aa/Ai): 0.38
In vitro
  T1/2: 1.95 h
MDR1; [4]
  ATP-dependent transport: 3,812.00 ± 42.21 cpm
  Relative ATP-dependent transport: 101.02 ± 3.23 % of control
  Relative inhibition: −1%
MDR1; [5]
  ATP-dependent transport: 3,744.33 ± 56.10 cpm
  Relative ATP-dependent transport: 99.23 ± 3.33 % of control
  Relative inhibition: 1%
MDR1; 10.00 μM nominal
  ATP-dependent transport: 1,845.67 ± 148.09 cpm
  Relative ATP-dependent transport: 51.19 ± 4.18 % of control
  Relative inhibition: 49%
MDR1; [6]
  ATP-dependent transport: 2,730.67 ± 83.62 cpm
  Relative ATP-dependent transport: 72.36 ± 3.10 % of control
  Relative inhibition: 28%
MDR1; [7]
  ATP-dependent transport: 1,363.00 ± 46.72 cpm
  Relative ATP-dependent transport: 36.12 ± 1.64 % of control
  Relative inhibition: 64%
MDR1; 100.00 μM nominal
  ATP-dependent transport: 2.84 ± 21.41 cpm
  Relative ATP-dependent transport: 7.89 ± 0.61 % of control
  Relative inhibition: 92%
MDR1; [8]
  ATP-dependent transport: 407.00 ± 29.39 cpm
  Relative ATP-dependent transport: 10.79 ± 0.84 % of control
  Relative inhibition: 89%
MDR1; [2]
  maximum inhibition of MDR1-mediated NMQ accumulation: 92%
MDR1
  Maximum % inhibition: 89%
MDR1; follow-up assay
  maximum inhibition of MDR1-mediated NMQ accumulation: 89%
MDR1; follow-up assay, bottom constrained to 0
  IC50: 21 µM
OATP1B1; [9]
  Relative inhibition: 0%
  Relative transporter specific accumulation: 99.91 ± 3.20 % of control
  Transporter specific accumulation: 2,252.33 ± 16.07 cpm
OATP1B1; [10]
  Relative inhibition: 3%
  Relative transporter specific accumulation: 96.63 ± 3.76 % of control
  Transporter specific accumulation: 2,178.33 ± 50.48 cpm
OATP1B1; [11]
  Relative inhibition: 25%
  Relative transporter specific accumulation: 75.21 ± 2.39 % of control
  Transporter specific accumulation: 2,303.00 ± 45.84 cpm
OATP1B1; [12]
  Relative inhibition: 23%
  Relative transporter specific accumulation: 77.32 ± 2.52 % of control
  Transporter specific accumulation: 1,743.00 ± 16.09 cpm
OATP1B1; [13]
  Relative inhibition: 50%
  Relative transporter specific accumulation: 49.83 ± 2.48 % of control
  Transporter specific accumulation: 1,123.33 ± 43.53 cpm
OATP1B1; [14]
  Relative inhibition: 87%
  Relative transporter specific accumulation: 12.92 ± 0.41 % of control
  Transporter specific accumulation: 395.67 ± 8.05 cpm
OATP1B1; [15]
  Relative inhibition: 83%
  Relative transporter specific accumulation: 16.93 ± 0.58 % of control
  Transporter specific accumulation: 381.67 ± 5.50 cpm
OATP1B1; [3]
  maximum inhibition of OATP1B1-mediated E217βG accumulation: 87%
OATP1B1
  Maximum % inhibition: 83%
OATP1B1; [16]
  Relative inhibition: 5%
  Relative transporter specific accumulation: 95.49 ± 3.39 % of control
  Transporter specific accumulation: 2,152.67 ± 36.09 cpm
OATP1B1; follow-up assay
  maximum inhibition of OATP1B1-mediated E217βG accumulation: 83%
OATP1B1; follow-up assay, NSB-corrected concentrations
  IC50: 31.4 µM

From patent US20250108038A1 (priority 2023, published 2025)
